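Grown in 96-well plates, cells were treated for 48 hours with each compound at five concentrations. Insufficient inhibition: endpoint recorded as highest concentration tested. Abbreviation: GI50, concentration required for 50% inhibition of growth.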 Calls of active or inactive are those of the source. No stated cut-off is given here; in the data, active = GI50 up to about 1.1 µM and inactive = higher.
How the values were obtained:
Test in all cases: inhibition of tumour cell growth, NCI panel, 48 h
HCC 2998 = system: HCC 2998
UACC-257 = system: UACC-257
TK-10 = system: TK-10
KM12 = system: KM12
SK-MEL-5 = system: SK-MEL-5
SK-MEL-28 = system: SK-MEL-28
HT-29 = system: HT-29
BT-549 = system: BT-549
LOX IMVI = system: LOX IMVI
786-0 = system: 786-0
SR = system: SR
OVCAR-3 = system: OVCAR-3
SF-295 = system: SF-295
IGROV-1 = system: IGROV-1
OVCAR-4 = system: OVCAR-4
SF-268 = system: SF-268
SNB-19 = system: SNB-19
NCI/ADR-RES = system: NCI/ADR-RES
DU-145 = system: DU-145
HOP-92 = system: HOP-92
Malme-3M = system: Malme-3M
CAKI-1 = system: CAKI-1
HCT-116 = system: HCT-116
MDA-N = system: MDA-N
CCRF-CEM = system: CCRF-CEM
SNB-75 = system: SNB-75
PC-3 = system: PC-3
OVCAR-5 = system: OVCAR-5
SW-620 = system: SW-620
Hs-578T = system: Hs-578T
MCF7 = system: MCF7
A549 = system: A549
A498 = system: A498
T47D = system: T47D
NCI-H23 = system: NCI-H23
OVCAR-8 = system: OVCAR-8
K562 = system: K562
HCT-15 = system: HCT-15
SK-OV-3 = system: SK-OV-3
COLO 205 = system: COLO 205
UACC-62 = system: UACC-62
NCI-H460 = system: NCI-H460
NCI-H226 = system: NCI-H226
SF-539 = system: SF-539
RXF 393 = system: RXF 393
RPMI-8226 = system: RPMI-8226
M14 = system: M14
U-251 = system: U-251
MDA-MB-231 = system: MDA-MB-231
MOLT-4 = system: MOLT-4
UO-31 = system: UO-31
ACHN = system: ACHN
EKVX = system: EKVX
HL-60 = system: HL-60
MDA-MB-435 = system: MDA-MB-435
SK-MEL-2 = system: SK-MEL-2
HOP-62 = system: HOP-62
SN12C = system: SN12C
NCI-H522 = system: NCI-H522

## Cc1ccc(C(=O)/C=C(\O)C(=O)NN=C(c2ccccc2)c2ccccc2)cc1
HCC 2998
  GI50: 80 µM (inactive)
UACC-257
  GI50: > 100 µM (inactive)
TK-10
  GI50: > 100 µM (inactive)
KM12
  GI50: 77.4 µM (inactive)
SK-MEL-5
  GI50: 53.1 µM (inactive)
SK-MEL-28
  GI50: > 100 µM (inactive)
HT-29
  GI50: > 100 µM (inactive)
BT-549
  GI50: 47.9 µM (inactive)
LOX IMVI
  GI50: 12.2 µM (inactive)
786-0
  GI50: 28.4 µM (inactive)
SR
  GI50: 27.2 µM (inactive)
OVCAR-3
  GI50: > 100 µM (inactive)
SF-295
  GI50: 66.8 µM (inactive)
IGROV-1
  GI50: 62.7 µM (inactive)
OVCAR-4
  GI50: 63.1 µM (inactive)
SF-268
  GI50: > 100 µM (inactive)
SNB-19
  GI50: 58.9 µM (inactive)
NCI/ADR-RES
  GI50: 30.5 µM (inactive)
DU-145
  GI50: > 100 µM (inactive)
HOP-92
  GI50: 28 µM (inactive)
Malme-3M
  GI50: > 100 µM (inactive)
CAKI-1
  GI50: > 100 µM (inactive)
HCT-116
  GI50: 36.5 µM (inactive)
MDA-N
  GI50: > 100 µM (inactive)
CCRF-CEM
  GI50: 29.2 µM (inactive)
SNB-75
  GI50: 82.4 µM (inactive)
PC-3
  GI50: 40.2 µM (inactive)
OVCAR-5
  GI50: > 100 µM (inactive)
SW-620
  GI50: 50.5 µM (inactive)
Hs-578T
  GI50: 56.9 µM (inactive)
MCF7
  GI50: 54.6 µM (inactive)
A549
  GI50: 41.2 µM (inactive)
A498
  GI50: > 100 µM (inactive)
T47D
  GI50: > 100 µM (inactive)
NCI-H23
  GI50: > 100 µM (inactive)
OVCAR-8
  GI50: 76.4 µM (inactive)
K562
  GI50: 17.3 µM (inactive)
HCT-15
  GI50: 39 µM
SK-OV-3
  GI50: > 100 µM (inactive)
COLO 205
  GI50: 40.4 µM (inactive)
UACC-62
  GI50: 68.9 µM (inactive)
NCI-H460
  GI50: 40.6 µM (inactive)
NCI-H226
  GI50: > 100 µM (inactive)
SF-539
  GI50: > 100 µM (inactive)
RXF 393
  GI50: > 100 µM (inactive)
RPMI-8226
  GI50: 26.6 µM (inactive)
M14
  GI50: > 100 µM (inactive)
U-251
  GI50: 46.2 µM (inactive)
MDA-MB-231
  GI50: > 100 µM (inactive)
MOLT-4
  GI50: 58.9 µM (inactive)
UO-31
  GI50: 55.6 µM (inactive)
ACHN
  GI50: 45 µM (inactive)
EKVX
  GI50: > 100 µM (inactive)
HL-60
  GI50: 13.9 µM (inactive)
MDA-MB-435
  GI50: > 100 µM (inactive)
SK-MEL-2
  GI50: > 100 µM (inactive)

## O=c1cc(O)c2ccccc2o1 [4-HYDROXYCOUMARINS]
HCC 2998
  GI50: > 100 µM (inactive)
UACC-257
  GI50: > 100 µM (inactive)
TK-10
  GI50: > 100 µM (inactive)
KM12
  GI50: > 100 µM (inactive)
SK-MEL-5
  GI50: > 100 µM (inactive)
HOP-62
  GI50: > 100 µM (inactive)
SK-MEL-28
  GI50: > 100 µM (inactive)
HT-29
  GI50: > 100 µM (inactive)
BT-549
  GI50: > 100 µM (inactive)
LOX IMVI
  GI50: > 100 µM (inactive)
786-0
  GI50: > 100 µM (inactive)
SR
  GI50: > 100 µM (inactive)
OVCAR-3
  GI50: > 100 µM (inactive)
SF-295
  GI50: > 100 µM (inactive)
IGROV-1
  GI50: > 100 µM (inactive)
OVCAR-4
  GI50: > 100 µM (inactive)
SF-268
  GI50: > 100 µM (inactive)
SNB-19
  GI50: > 100 µM (inactive)
SN12C
  GI50: > 100 µM (inactive)
NCI/ADR-RES
  GI50: > 100 µM (inactive)
DU-145
  GI50: > 100 µM (inactive)
HOP-92
  GI50: > 100 µM (inactive)
Malme-3M
  GI50: > 100 µM (inactive)
CAKI-1
  GI50: > 100 µM (inactive)
HCT-116
  GI50: > 100 µM (inactive)
MDA-N
  GI50: > 100 µM (inactive)
CCRF-CEM
  GI50: > 100 µM (inactive)
SNB-75
  GI50: > 100 µM (inactive)
PC-3
  GI50: > 100 µM (inactive)
OVCAR-5
  GI50: > 100 µM (inactive)
SW-620
  GI50: > 100 µM (inactive)
Hs-578T
  GI50: > 100 µM (inactive)
MCF7
  GI50: > 100 µM (inactive)
A549
  GI50: > 100 µM (inactive)
A498
  GI50: > 100 µM (inactive)
T47D
  GI50: > 100 µM (inactive)
NCI-H23
  GI50: > 100 µM (inactive)
OVCAR-8
  GI50: > 100 µM (inactive)
K562
  GI50: > 100 µM (inactive)
COLO 205
  GI50: > 100 µM (inactive)
UACC-62
  GI50: > 100 µM (inactive)
NCI-H460
  GI50: > 100 µM (inactive)
NCI-H522
  GI50: > 100 µM (inactive)
NCI-H226
  GI50: > 100 µM (inactive)
SF-539
  GI50: > 100 µM (inactive)
RXF 393
  GI50: > 100 µM (inactive)
RPMI-8226
  GI50: > 100 µM (inactive)
M14
  GI50: > 100 µM (inactive)
U-251
  GI50: > 100 µM (inactive)
MDA-MB-231
  GI50: > 100 µM (inactive)
MOLT-4
  GI50: > 100 µM (inactive)
UO-31
  GI50: > 100 µM (inactive)
ACHN
  GI50: > 100 µM (inactive)
EKVX
  GI50: > 100 µM (inactive)
HL-60
  GI50: > 100 µM (inactive)
MDA-MB-435
  GI50: > 100 µM (inactive)

— ChEMBL document CHEMBL1201862, “PubChem BioAssay data set” (2004)
